US7923461B2, “TNF-α production inhibitors” (Santen Pharmaceutical Co., Ltd., priority 2000, dated 2011)

In the case of CCCCCN(CCC12CC3CC(CC(C3)C1)C2)C(=O)NCCc1ccc(O)cc1, the melting point is reported as 96.3 to 99.4 °C.
Cl.O=C(NCc1ccncc1)N(CCC1CCCCC1)Cc1cccs1 gave a melting point of 161.8 to 164.4 °C.
In the case of Cl.O=C(NCCCc1ccncc1)N(CCC12CC3CC(CC(C3)C1)C2)CCC12CC3CC(CC(C3)C1)C2, the melting point is reported as 120 to 122.5 °C.
In the case of CCCCCN(CCC12CC3CC(CC(C3)C1)C2)C(=O)CNCCc1ccncc1.Cl.Cl, the melting point is reported as 133.7 to 137 °C.
For CC(C)CCN(CCC(C)C)C(=O)NCCCc1ccncc1.Cl, the melting point was 120.5 to 131.7 °C.
In the case of Cl.Cl.NN(CCC12CC3CC(CC(C3)C1)C2)C(=O)NCCCc1ccncc1, the melting point is reported as ~ 100 °C.
Work on Cl.O=C1CCN(CCC2CCCCC2)C(=O)N1Cc1ccncc1 yielded a melting point of 64 to 74.5 °C.
With Cl.O=C1CCN(CCCc2ccncc2)C(=O)N1CCC12CC3CC(CC(C3)C1)C2 the melting point was 170 °C.
For O=C(NCCCc1ccncc1)N1CCc2ccccc2C1 [Compound No. 1-5, N-[3-(4-Pyridyl)propyl]-1,2,3,4-tetrahydroisoquinoline-2-carboxamide], the melting point was 76 to 79 °C.
Compound O=C(NCCCc1ccncc1)N1CCOCC1 [Compound No. 1-6, N-[3-(4-Pyridyl)propyl]-4-morpholinecarboxamide] has a melting point of 94 to 98 °C.
CN(C)CCN(CCC12CC3CC(CC(C3)C1)C2)C(=O)NCCCc1ccncc1 [Compound No. 1-15, 1-[2-(1-Adamantyl)ethyl]-1-[2-(dimethylamino)ethyl]-3-[3-(4-pyridyl)propyl]urea] gave a melting point of 104 to 106.5 °C.
CCCN(CCC12CC3CC(CC(C3)C1)C2)C(=O)NCCCc1ccncc1 [Compound No. 1-16, 1-[2-(1-Adamantyl)ethyl]-1-propyl-3-[3-(4-pyridyl)propyl]urea] showed a melting point of 99 to 103 °C.
C#CCN(CCC12CC3CC(CC(C3)C1)C2)C(=O)NCCCc1ccncc1 [Compound No. 1-17, 1-[2-(1-Adamantyl)ethyl]-1-(2-propynyl)-3-[3-(4-pyridyl)propyl]urea] gave a melting point of 152 to 154 °C.
Compound O=C(NCCCc1ccncc1)N(CCC12CC3CC(CC(C3)C1)C2)C1CC1 [Compound No. 1-19, 1-[2-(1-Adamantyl)ethyl]-1-cyclopropyl-3-[3-(4-pyridyl)propyl]urea] has a melting point of 108 to 115.5 °C.
O=C(NCCCc1ccncc1)N(CCC12CC3CC(CC(C3)C1)C2)CC1CCCC1 [Compound No. 1-21, 1-[2-(1-Adamantyl)ethyl]-1-cyclopentylmethyl-3-[3-(4-pyridyl)propyl]urea] gave a melting point of 155 to 158 °C.
Work on C=CCN(CCC12CC3CC(CC(C3)C1)C2)C(=O)NCCCc1ccncc1 [Compound No. 1-23, 1-[2-(1-Adamantyl)ethyl]-1-allyl-3-[3-(4-pyridyl)propyl]urea] yielded a melting point of 99 to 102 °C.
With CCCCCCN(CCC12CC3CC(CC(C3)C1)C2)C(=O)NCCCc1ccncc1 [Compound No. 1-29, 1-[2-(1-Adamantyl)ethyl]-1-hexyl-3-[3-(4-pyridyl)propyl]urea] the melting point was 119.5 to 121.5 °C.
With C=C(C)CN(CCC12CC3CC(CC(C3)C1)C2)C(=O)NCCCc1ccncc1 [Compound No. 1-33, 1-[2-(1-Adamantyl)ethyl]-1-(2-methyl-2-propenyl)-3-[3-(4-pyridyl)propyl]urea] the melting point was 108 to 109 °C.
With CN(CCC12CC3CC(CC(C3)C1)C2)C(=O)NCCCc1ccncc1 [Compound No. 1-40, 1-[2-(1-Adamantyl)ethyl]-1-methyl-3-[3-(4-pyridyl)propyl]urea] the melting point was 99 to 109 °C.
CCN(CCC12CC3CC(CC(C3)C1)C2)C(=O)NCCCc1ccncc1 [Compound No. 1-41, 1-[2-(1-Adamantyl)ethyl]-1-ethyl-3-[3-(4-pyridyl)propyl]urea] gave a melting point of 106 to 115 °C.
With CCCCCN(CCC1CCCCC1)C(=O)NCc1ccncc1 [Compound No. 1-52, 1-(2-Cyclohexylethyl)-1-pentyl-3-(4-pyridyl)methylurea] the melting point was 64.7 to 65.8 °C.
For CCCCN(CCC12CC3CC(CC(C3)C1)C2)C(=O)NCCCc1ccncc1 [Compound No. 1-57, 1-[2-(1-Adamantyl)ethyl]-1-butyl-3-[3-(4-pyridyl)propyl]urea], the melting point was 109.5 to 118 °C.
O=C(N(CCCc1ccncc1)Cc1ccccc1)N(CCCc1ccccc1)C1CCCCC1 [Compound No. 1-60, 1-Cyclohexyl(phenyl)methyl-1-(3-phenylpropyl)-3-[3-(4-pyridyl)propyl]urea] gave a melting point of 107 to 112 °C.
In the case of O=C(NCCCc1ccncc1)N(C1CCCCC1)C1CCCCC1 [Compound No. 1-61, 1,1-Dicyclohexyl-3-[3-(4-pyridyl)propyl]urea], the melting point is reported as 143 to 145.5 °C.
Compound CC(C)(C)OC(=O)CCN(CCC12CC3CC(CC(C3)C1)C2)C(=O)NCCCc1ccncc1 [Compound No. 1-69, 1-[2-(1-Adamantyl)ethyl]-1-[2-(t-butoxycarbonyl)ethyl]-3-[3-(4-pyridyl)propyl]urea] has a melting point of 124.5 to 127 °C.
CCCCCN(CCC12CC3CC(CC(C3)C1)C2)C(=O)NCc1ccccn1 [Compound No. 1-72, 1-[2-(1-Adamantyl)ethyl]-1-pentyl-3-(2-pyridyl)methylurea] showed a melting point of 87.5 to 92 °C.
For CCCCCN(CCC12CC3CC(CC(C3)C1)C2)C(=O)NCc1cccnc1 [Compound No. 1-73, 1-[2-(1-Adamantyl)ethyl]-1-pentyl-3-(3-pyridyl)methylurea], the melting point was 88.5 to 101.5 °C.
With CCCCCN(CCC12CC3CC(CC(C3)C1)C2)C(=O)NCc1ccncc1 [Compound No. 1-74, 1-[2-(1-Adamantyl)ethyl]-1-pentyl-3-(4-pyridyl)methylurea] the melting point was 96.5 to 108 °C.
CCCCCN(CCC12CC3CC(CC(C3)C1)C2)C(=O)NCCc1ccccn1 [Compound No. 1-75, 1-[2-(1-Adamantyl)ethyl]-1-pentyl-3-[2-(2-pyridyl)ethyl]urea] showed a melting point of 80 to 100 °C.
Work on CCCCCN(CCC12CC3CC(CC(C3)C1)C2)C(=O)NCCc1cccnc1 [Compound No. 1-76, 1-[2-(1-Adamantyl)ethyl]-1-pentyl-3-[2-(3-pyridyl)ethyl]urea] yielded a melting point of 112.5 to 114.5 °C.
CCCCCN(CCC12CC3CC(CC(C3)C1)C2)C(=O)NCCc1ccncc1 [Compound No. 1-80, 1-[2-(1-Adamantyl)ethyl]-1-pentyl-3-[2-(4-pyridyl)ethyl]urea] gave a melting point of 107 to 118 °C.
For CCCCCN(CCC12CC3CC(CC(C3)C1)C2)C(=O)NCCCc1ccccn1 [Compound No. 1-83, 1-[2-(1-Adamantyl)ethyl]-1-pentyl-3-[3-(2-pyridyl)propyl]urea], the melting point was 84.4 to 85.7 °C.
With CCCCCN(CCC12CC3CC(CC(C3)C1)C2)C(=O)NCCCCc1ccncc1 [Compound No. 1-87, 1-[2-(1-Adamantyl)ethyl]-1-pentyl-3-[4-(4-pyridyl)butyl]urea] the melting point was 74.1 to 78.1 °C.
For CCCCCN(CCC12CC3CC(CC(C3)C1)C2)C(=O)NCCCc1ccnc2ccccc12 [Compound No. 1-91, 1-[2-(1-Adamantyl)ethyl]-1-pentyl-3-[3-(4-quinolyl)propyl]urea], the melting point was 80.2 to 102 °C.
O=C(NCCCc1ccncc1)N(CCCc1ccccc1)C(c1ccccc1)c1ccccc1 [Compound No. 1-93, 1-Diphenylmethyl-1-(3-phenylpropyl)-3-[3-(4-pyridyl)propyl]urea] gave a melting point of 123 to 124.8 °C.
